Like-named read-outs stand apart in the source and are kept apart here.
Experiments:
5HT2B receptors = target: T1, 5HT2B receptors (Homo sapiens, UniProt P41595); experiment: Human 5-HT2B functional high throughput screening assay in CHO-K1 cells (calcium flux); type: cell-based; settings: for EC50: CHO-K1 cells, calcium flux
T1 construct: expressed in transfected cells; host or cells: CHO-K1 cells
Outline: (§1)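 Serum-starved CHO-K1 cells carrying the receptor; Ca4 dye, 60 min RT. Test compound added after a 10 s baseline, fluorescence followed for 3 min. EC50 from 4-parameter fit; Emax given as % of serotonin effect.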

5HT2C receptors = target: T2, 5HT2C receptors (Homo sapiens, UniProt P28335); experiment: Human 5-HT2C functional high throughput screening assay in CHO-K1 cells (calcium flux); type: cell-based; set-up: expressed in transfected cells; host or cells: CHO-K1 cells; settings: for Emax: CHO-K1, 5-HT2C, maximum functional response as percentage relative to the effect of serotonin; for EC50: CHO-K1 cells, calcium flux
T2 sequence (P28335 33-458): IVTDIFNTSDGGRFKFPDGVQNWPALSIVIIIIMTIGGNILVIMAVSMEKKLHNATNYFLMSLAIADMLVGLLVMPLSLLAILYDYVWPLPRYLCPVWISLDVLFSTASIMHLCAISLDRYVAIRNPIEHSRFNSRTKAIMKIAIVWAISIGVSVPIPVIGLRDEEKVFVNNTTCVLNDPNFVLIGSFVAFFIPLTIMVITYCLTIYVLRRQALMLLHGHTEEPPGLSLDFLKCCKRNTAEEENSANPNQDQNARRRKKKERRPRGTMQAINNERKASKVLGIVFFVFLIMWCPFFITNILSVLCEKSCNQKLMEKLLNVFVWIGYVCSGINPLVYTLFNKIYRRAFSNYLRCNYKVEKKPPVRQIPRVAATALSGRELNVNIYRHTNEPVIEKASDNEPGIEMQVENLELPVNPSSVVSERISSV
Outline: as §1

[1] = 5-HT2B, maximum functional response as percentage relative to the effect of serotonin
[2] = 5-HT2B agonist activity, read-out: EC50
[3] = 5-HT2C agonist activity, read-out: EC50

T1 sequence (P41595 whole entry): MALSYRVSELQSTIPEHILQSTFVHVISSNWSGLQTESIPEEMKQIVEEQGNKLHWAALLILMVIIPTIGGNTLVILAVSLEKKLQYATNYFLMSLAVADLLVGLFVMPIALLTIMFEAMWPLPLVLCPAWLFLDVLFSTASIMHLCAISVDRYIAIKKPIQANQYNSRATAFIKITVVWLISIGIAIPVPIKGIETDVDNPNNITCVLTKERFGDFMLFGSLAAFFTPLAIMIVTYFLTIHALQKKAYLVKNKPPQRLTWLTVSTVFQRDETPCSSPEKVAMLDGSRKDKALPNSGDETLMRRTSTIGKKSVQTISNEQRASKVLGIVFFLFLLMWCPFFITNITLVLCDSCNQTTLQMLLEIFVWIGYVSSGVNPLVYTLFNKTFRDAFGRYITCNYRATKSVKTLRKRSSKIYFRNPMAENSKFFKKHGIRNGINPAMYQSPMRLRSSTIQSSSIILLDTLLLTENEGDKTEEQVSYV

Row | Emax (5HT2B receptors; [1]) | Emax (5HT2C receptors; read-out: Emax) [%] | SMILES | EC50 (5HT2B receptors; EC50, 5-HT2B agonist activity) [nM] | Emax (5HT2C receptors) [%] | EC50 (5HT2C receptors; EC50, 5-HT2C agonist activity) [nM] | EC50 (5HT2B receptors; [2]) [nM] | EC50 (5HT2C receptors; [3]) [nM] | Emax (5HT2B receptors; CHO-K1) [%]
1 | inactive | > 120 | COc1ccc2c(c1)[C@H]1CN(Cc3ccccc3)C[C@@H]1CCC2=O (relative stereo) [Example 261, Trans-2-benzyl-9-methoxy-2,3,3a,4,5,10b-hexahydrobenzo[3,4]cyclohepta[1,2-c]pyrrol-6(1H)-one] |  |  |  | > 10000 | 40 | 
2 |  |  | COc1ccc2c(c1)[C@H]1CNC[C@@H]1CCC2 (relative stereo) [Example 263, Trans-9-methoxy-1,2,3,3a,4,5,6,10b-octahydrobenzo[3,4]cyclohepta[1,2-c]pyrrole] | 20 | > 120 | 100 |  |  | 100
3 |  |  | c1cnc2c(c1)[C@@H]1CNC[C@H]1CCO2 (relative stereo) [Example 264, Trans-2,3,3a,4,5,10b-hexahydro-1H-pyrrolo[3′,4′:4,5]oxepino[2,3-b]pyridine] |  | > 120 |  | 3000 | 1000 | 20
4 | inactive | > 120 | O=C1NC[C@@H]2CNC[C@H]2c2ccc(C3CCOCC3)cc21 (relative stereo) [Example 265, Trans-8-(tetrahydro-2H-pyran-4-yl)-1,2,3,3a,4,5-hexahydrobenzo[c]pyrrolo[3,4-e]azepin-6(10bH)-one] |  |  |  | > 10000 | 100 | 
5 |  |  | COc1ccc2c(c1)[C@H]1CNC[C@@H]1CC=C2 (relative stereo) [Example 266, Trans-9-methoxy-1,2,3,3a,4,10b-hexahydrobenzo[3,4]cyclohepta[1,2-c]pyrrole] | 400 | > 120 | 10 |  |  | 25
6 | inactive | 90 | CN1C[C@H]2CNC(=O)c3cc(C4CCOCC4)ccc3[C@@H]2C1 (relative stereo) [Example 267, Trans-2-methyl-8-(tetrahydro-2H-pyran-4-yl)-1,2,3,3a,4,5-hexahydrobenzo[c]pyrrolo[3,4-e]azepin-6(10bH)-one] |  |  |  | > 10000 | 1000 | 
7 |  |  | CN1C[C@@H]2CCCc3ccccc3[C@@H]2C1 (relative stereo) [Example 269, Cis-2-methyl-1,2,3,3a,4,5,6,10b-octahydrobenzo[3,4]cyclohepta[1,2-c]pyrrole] | 800 | > 120 | 100 |  |  | 50
8 |  |  | COc1cccc2c1[C@H]1CNC[C@@H]1CCO2 (relative stereo) [Example 272, Trans-10-methoxy-2,3,3a,4,5,10b-hexahydro-1H-[1]benzoxepino[4,5-c]pyrrole] | 200 | > 120 | 7 |  |  | 20
9 |  |  | COc1cccc2c1[C@H]1CN(C)C[C@@H]1CCO2 (relative stereo) [Example 273, Trans-10-methoxy-2-methyl-2,3,3a,4,5,10b-hexahydro-1H-[1]benzoxepino[4,5-c]pyrrole] | 100 | > 120 | 10 |  |  | 35
10 | inactive | > 120 | O=C1NC[C@@H]2CNC[C@H]2c2ccc(-c3c(F)cccc3F)cc21 (relative stereo) [Example 276, Trans-8-(2,6-difluorophenyl)-1,2,3,3a,4,5-hexahydrobenzo[e]pyrrolo[3,4-c]azepin-6(10bH)-one] |  |  |  | > 10000 | 8 | 
11 |  |  | Cc1cc2c(cc1F)C(=O)NC[C@@H]1CNC[C@H]21 (relative stereo) [Example 279, Cis-8-fluoro-9-methyl-1,2,3,3a,4,5-hexahydrobenzo[c]pyrrolo[3,4-e]azepin-6(10bH)-one] | 900 | > 120 | 60 |  |  | 90
12 |  |  | COc1ccc2c(c1)OCC[C@H]1CNC[C@H]21 (relative stereo) [Example 280, Trans-8-methoxy-2,3,3a,4,5,10b-hexahydro-1H-[1]benzoxepino[4,5-c]pyrrole] | 100 | 100 | 90 |  |  | 60
13 |  |  | Fc1cccc2c1OCC[C@H]1CNC[C@H]21 (relative stereo) [Example 281, Trans-7-fluoro-2,3,3a,4,5,10b-hexahydro-1H-[1]benzoxepino[4,5-c]pyrrole] | 100 | 100 | 8 |  |  | 90
14 |  |  | FC(F)(F)Oc1ccc2c(c1)[C@H]1CNC[C@@H]1CCO2 (relative stereo) [Example 282, Trans-9-(trifluoromethoxy)-2,3,3a,4,5,10b-hexahydro-1H-[1]benzoxepino[4,5-c]pyrrole] |  | 70 |  | 200 | 900 | 30
15 |  |  | Fc1cc(F)c2c(c1)[C@H]1CNC[C@@H]1CCO2 (relative stereo) [Example 283, Trans-7,9-difluoro-2,3,3a,4,5,10b-hexahydro-1H-[1]benzoxepino[4,5-c]pyrrole] | 60 | 80 | 800 |  |  | 50
16 |  |  | Fc1ccc2c(c1)[C@@H]1CNC[C@@H]1CCO2 (relative stereo) [Example 284, Cis-9-fluoro-2,3,3a,4,5,10b-hexahydro-1H-[1]benzoxepino[4,5-c]pyrrole] | 10 | 85 | 400 |  |  | 55
17 |  |  | FC(F)(F)Oc1cccc2c1OCC[C@H]1CNC[C@H]21 (relative stereo) [Example 285, Trans-7-(trifluoromethoxy)-2,3,3a,4,5,10b-hexahydro-1H-[1]benzoxepino[4,5-c]pyrrole] | 9 | 100 | < 0.1 |  |  | 90
18 |  |  | Fc1ccc2c(c1)[C@H]1CNC[C@@H]1CCO2 (relative stereo) [Example 286, Trans-9-fluoro-2,3,3a,4,5,10b-hexahydro-1H-[1]benzoxepino[4,5-c]pyrrole] | 50 | 90 | 300 |  |  | 60
19 |  |  | Fc1cccc2c1[C@H]1CNC[C@@H]1CCO2 (relative stereo) [Example 287, Trans-10-fluoro-2,3,3a,4,5,10b-hexahydro-1H-[1]benzoxepino[4,5-c]pyrrole] | 300 | 95 | 50 |  |  | 40

Row | SMILES | Emax (5HT2B receptors; [1]) | Emax (5HT2C receptors; read-out: Emax) [%] | EC50 (5HT2B receptors; EC50, 5-HT2B agonist activity) [nM] | Emax (5HT2C receptors) [%] | EC50 (5HT2C receptors; EC50, 5-HT2C agonist activity) [nM] | EC50 (5HT2B receptors; [2]) [nM] | EC50 (5HT2C receptors; [3]) [nM] | Emax (5HT2B receptors; CHO-K1) [%]
20 | O=C1NC[C@@H]2CNC[C@H]2c2cc3c(cc21)CCCC3 (relative stereo) [Example 258, Trans-1,2,3,3a,4,5,8,9,10,11-decahydronaphtho[2,3-c]pyrrolo[3,4-e]azepin-6(12bH)-one] | inactive |  | > 10000 | 100 | 10 |  |  | 
21 | c1ccc(CN2C[C@H]3CCOc4ncccc4[C@@H]3C2)cc1 (relative stereo) [Example 262, Trans-2-benzyl-2,3,3a,4,5,10b-hexahydro-1H-pyrrolo[3′,4′:4,5]oxepino[2,3-b]pyridine] | inactive |  |  | 90 |  | > 10000 | 2000 | 
22 | CN1C[C@H]2CCOc3ncccc3[C@@H]2C1 (relative stereo) [Example 268, Trans-2-methyl-2,3,3a,4,5,10b-hexahydro-1H-pyrrolo[3′,4′:4,5]oxepino[2,3-b]pyridine] | inactive |  |  | 70 |  | > 10000 | 7000 | 

Source: patent publication US8846951B2 (AbbVie Inc., priority 2009, dated 2014)
